Assay results taken from US20160008333A1, “PROPHYLACTIC OR THERAPEUTIC AGENT FOR POSTERIOR OCULAR DISEASE CONTAINING TETRAHYDROPYRANYLAMINOCYCLOPENTYLCARBONYLTETRAHYDROPYRIDOPYRIDINE DERIVATIVE AS EFFECTIVE INGREDIENT” (SANTEN PHARMACEUTICAL CO., LTD., priority 2013, published 2016).

What was measured:
Assay type in all cases: in vivo
[1] = system: choroidal neovascularization; assay: Krypton laser-induced rat choroidal neovascularization model (fluorescein fundus angiography); conditions: evaluated 7th day after photocoagulation
Experimental: By using a laser-induced rat choroidal neovascularization model (Invest. Ophthalmol. Vis. Sci., 40(2), 459-466 (1999)), usefulness of the compounds of the present invention was evaluated.
A rat was intramuscularly administered 1 ml/kg of a mixed solution (7:1) comprising a 5% (W/V) ketamine hydrochloride injection solution and a 2% xylazine hydrochloride injection solution to perform general anesthesia, and after a 0.5% (W/V) tropicamide-0.5% phenylephrine hydrochloride eye drop was dropped into eyes to perform mydriasis, photocoagulation was carried out by a krypton laser photocoagulation apparatus. The photocoagulation was carried out at the posterior part of eye ground, while avoiding thick retinal blood vessels, by focusing on the deep retina with eight spots per an eye in a scattered state (coagulation conditions: spot size 100 μm, output 100 mW, coagulation time 0.1 second). After the photocoagulation, the ocular fundus was photographed to confirm laser irradiated sites.
Compound A was mixed with a 1% (W/V) methyl cellulose solution (prepared by dissolving methyl cellulose in purified water) so that it became 0.4, 1.2, 4 and 12 mg/ml, and an administration solution containing Compound A was orally administered twice a day for 7 days from the surgery day including the surgery day of the photocoagulation with a dose of 2, 6, 20 and 60 mg/kg. Incidentally, to the base administered group was similarly administered a 1% (W/V) methyl cellulose solution.
At the 7th day after the photocoagulation, a rat was intramuscularly administered 1 ml/kg of a mixed solution (7:1) comprising a 5% (W/V) ketamine hydrochloride injection solution and a 2% xylazine hydrochloride injection solution to perform general anesthesia, and a 0.5% (W/V) tropicamide-0.5% phenylephrine hydrochloride eye drop was dropped into eyes to perform mydriasis, 0.1 ml of a 10% fluorescein solution was injected into a vein of penis to carry out fluorescein fundus angiography. A spot from which no leakage of fluorescence was admitted by the fluorescein fundus angiography was judged as negative (no neovascularization), and a spot from which leakage of fluorescence was admitted was judged as positive. In addition, when the photocoagulation portions from which a slight leakage of fluorescence was admitted were present two portions, it was judged as positive (neovascularization exists). Thereafter, according to Numerical formula 1, a rate of incidence of choroidal neovascularization (%) was calculated from a number of positive spot(s) to the eight spots to which the laser was irradiated, and a suppressing rate (%) of the evaluated drug was calculated in accordance with Numerical formula 2. Incidentally, a number of the samples of each administered group is 7 or 8. […]

[2] = system: thrombin-induced retinal vascular hyperpermeability; assay: Rat model of thrombin-induced retinal vascular hyperpermeability (vitreous protein concentration)
[3] = system: TNFα-induced retinal vascular hyperpermeability; assay: Rat model of TNFα-induced retinal vascular hyperpermeability, oral administration
Text: TNFα is a cytokine which has been reported to increase its expression in proliferative diabetic retinopathy or at the vitreous body of retinal vein occlusion (Eye 2006; 20: 1366-1369, Jpn. J. Ophthalmol. 2011; 55: 256-63), and in a streptozocin-induced diabetes model, it has been reported that it participates in onset and progress of diabetic retinopathy through permeability enhancement or histopathological alteration of retinal vessel (Mol. Vis. 2009; 15: 1418-1428). Thus, by using a rat model of TNFα-induced retinal vascular hyperpermeability, usefulness of Compound A, the diastereomer I of Compound A and the diastereomer II of Compound A were evaluated.
A rat was intramuscularly administered 1 ml/kg of a mixed solution (7:1) comprising a 5% (W/V) ketamine hydrochloride injection solution and a 2% xylazine hydrochloride injection solution to perform general anesthesia, and a 0.5% (W/V) tropicamide-0.5% phenylephrine hydrochloride eye drop was dropped into eyes to perform mydriasis. Thereafter, 5 μL of TNFα (10 μg/ml) was injected into the vitreous body by using a 32G needle so as not to damage the crystalline lens and the retina. A rat of normal group was administered PBS (phosphate buffer) in place of the TNFα.
Compound A was dissolved in a 1% (W/V) methyl cellulose solution (prepared by dissolving methyl cellulose in purified water) so that it became 2 and 20 mg/ml to prepare a Compound A solution. The Compound A solution was orally administered with a dose of 10 and 100 mg/kg at 30 minutes before, 6 and 20 hours after administration of TNFα in the vitreous body. The diastereomer I of Compound A and the diastereomer II of Compound A were also similarly prepared and administered. Incidentally, the base administered group was similarly administered a 1% (W/V) methyl cellulose solution.
In addition, RS-504393 which is a CCR2 receptor antagonist was used those purchased from Tocris Bioscience Inc., and orally administered in the same manner with a dose of 3 and 30 mg/kg.
After 24 hours from administration of TNFα in the vitreous body, the rat was euthanized by exsanguination, and then, the eyeballs of the rat were excised so as not to mix with a blood. After extraction of the eyeballs, the vitreous body was rapidly collected by making a tiny cut at around the optic papilla using a surgical scalpel. The collected vitreous body was optionally diluted by purified water, and the protein concentration was measured by the Bradford method. The protein concentration of the vitreous body thus measured was used as an index of the retinal vascular permeability. Thereafter, according to Numerical formula 4, a suppressing rate (%) of the evaluated drug against the retinal vascular hyperpermeability caused by TNFα was calculated. […]

[4] = system: TNFα-induced retinal vascular hyperpermeability; assay: Rat model of TNFα-induced retinal vascular hyperpermeability, intravitreal administration; conditions: 100 μg/eye intravitreally immediately after intravitreal TNFα; vitreous protein at 24 h
Experimental: To investigate an effectiveness of Compound A by topical administration, the effect of intravitreal administration of Compound A on a rat model of TNFα-induced retinal vascular hyperpermeability was investigated. A model was prepared in the same manner as in Pharmacological test 3. Compound A was dissolved in a mixed solution of dimethylsulfoxide and PLA0020 with a ratio of 4: 1 so that it became 40 mg/ml to prepare a solution of Compound A. Immediately after intravitreal administration of TNFα, the solution of Compound A was intravitreally administered with a dose of 100 μg/eyes. Incidentally, to the base administered group, a mixed solution of dimethylsulfoxide and PLA0020 with a ratio of 4:1 was similarly administered. After 24 hours from intravitreal administration of TNFα, the rat was euthanized by exsanguination, and then, the eyeballs of the rat were excised so as not to mix with a blood. […] The collected vitreous body was optionally diluted by purified water, and the protein concentration was measured by the Bradford method. The protein concentration of the vitreous body thus measured was used as an index of the retinal vascular permeability. Thereafter, according to Numerical formula 4, a suppressing rate (%) of the evaluated drug against the retinal vascular hyperpermeability caused by TNFα was calculated. […]

[5] = 10 mg/kg intraperitoneally, vitreous protein 24 h after intravitreal thrombin

In the case of COC1COCCC1N[C@@H]1CC[C@@](C(=O)N2CCc3ncc(C(F)(F)F)cc3C2)(C(C)C)C1.O=C(O)CCC(=O)O (stereo partly drawn) [Compound A], the “Suppressing rate (%) of incidence of choroidal neovascularization” value ([1]; 2 mg/kg orally twice a day for 7 days) is reported as 32.8%, the “Suppressing rate (%) of incidence of choroidal neovascularization” value ([1]; 6 mg/kg orally twice a day for 7 days) is reported as 39.5% and the “Suppressing rate (%) of incidence of choroidal neovascularization” value ([1]; 20 mg/kg orally twice a day for 7 days) is reported as 52.9%. For the same compound, the “Suppressing rate (%) of incidence of choroidal neovascularization” value ([1]; 60 mg/kg orally twice a day for 7 days) was 62.7%, the “Retinal vascular permeability suppressing rate (%)” value ([2]; 6 mg/kg orally at 30 min before, 6 and 20 h after intravitreal thrombin, vitreous protein at 24 h) was 15% and the “Retinal vascular permeability suppressing rate (%)” value ([3]; 10 mg/kg orally at 30 min before, 6 and 20 h after intravitreal TNFα, vitreous protein at 24 h) was 63%. For the same compound, the “Retinal vascular permeability suppressing rate (%)” value ([3]; 100 mg/kg orally at 30 min before, 6 and 20 h after intravitreal TNFα, vitreous protein at 24 h) was 88% and the “Retinal vascular permeability suppressing rate (%)” value [4] was 61%.
C[N+](C)(Cc1ccc(NC(=O)c2ccc(Cl)c(Cl)c2)cc1)C1CCOCC1.[Cl-] [Compound B, N-[4-(3,4-dichlorobenzamido)benzyl]-N,N-dimethyl-N-(tetrahydropyran-4-yl)ammonium chloride] was tested, and the “Retinal vascular permeability suppressing rate (%)” value [2, 5] was −13%.
Cc1ccc2c(c1)C1(CCN(CCc3nc(-c4ccccc4)oc3C)CC1)OC(=O)N2 [RS-504393, reference compound] was tested, and the “Retinal vascular permeability suppressing rate (%)” value ([3]; 3 mg/kg orally, vitreous protein 24 h after intravitreal TNFα) was 18% and the “Retinal vascular permeability suppressing rate (%)” value ([3]; 30 mg/kg orally, vitreous protein 24 h after intravitreal TNFα) was −13%.
O=C(/C=C/c1cc(F)cc(F)c1)N1CCC([C@@H](CO)N2CCC(c3c[nH]c4ncccc34)CC2)CC1 [Compound C, 2(S)-[1-[3-(3,5-difluorophenyl)-2(E)-propenoyl]piperidin-4-yl]-2-[4-(1H-pyrrolo[2,3-b]pyridin-3-yl)piperidin-1-yl]ethanol] was tested, and the “Retinal vascular permeability suppressing rate (%)” value [2, 5] was −1%.
